Assay results published in a melting point compilation (Tetko et al.; mined from patent text by program, amines drawn as free bases though some values may be those of a salt).

melting point | SMILES
116 to 118 °C | C[C@@H]1CN(C(=O)OC(C)(C)C)Cc2cc3cc(Br)c(F)cc3n21
174 to 175 °C | Clc1cccc(NC2=Nc3ccc(Cl)cc3CS2)c1
166 to 168 °C | O=C1C2=NCCCN2c2ccc(Br)cc21
148 to 150 °C | Oc1ncnc2c1c(Nc1cccc(Cl)c1)nn2Cc1ccccc1
171 to 173 °C | O=C(Cc1cccs1)NCc1cccc2c1C(=O)N(C1CCC(=O)NC1=O)C2=O (configuration not stated)
102 to 104 °C | CC(=O)OC[C@@H]1CCCN1C(c1ccccc1)(c1ccccc1)c1ccccc1Cl
258 to 260 °C | COC(=O)c1cc(=O)c2oc3cc(OC)ccc3c(=O)c2[nH]1
175 to 176 °C | CN(C)C(=O)COc1ccc2c(c1)C[C@@H](NC[C@H](O)c1ccc(O)c(CO)c1)CC2
211 to 213 °C | Cc1nc(Sc2cccc(C(=O)O)n2)sc1CC(=O)O
126 to 129 °C | COC(=O)c1ccc(C(=O)CCC(=O)c2ccc3c(c2)C(C)(C)CCC3(C)C)cc1
86 to 93 °C | CC(C)(C)C(=O)Oc1ccc(-c2nnn(C(C(=O)NCC(=O)O)c3ccccc3)n2)cc1 (configuration not stated)
45 to 46 °C | S=C=Nc1cccc2ccoc12
124 to 125 °C | CC(C)c1nc(CCCO)n(C)c1Sc1cc(Cl)cc(Cl)c1
92 to 112 °C | CC(=O)N1CCc2ccc(Cl)c(S)c2C1
105 to 106 °C | CCOC(=O)C(CC(C)C)(C(=O)OCC)[C@H](NC(C)=O)[PH](=O)O
200 to 201 °C | COc1ccc(C(=O)Cc2c(Cl)cncc2Cl)c2c(CC(=O)OCc3ccccc3[N+](=O)[O-])coc12
83 to 84 °C | COc1ccc(N=C=O)cc1
64 to 68 °C | CCCCNC(=O)CCC(=NNC(N)=S)c1ccccc1
212 to 214 °C | N[C@@H](CC(C(=O)O)=C1CCC1)C(=O)O
200 to 201 °C | COc1cc2c(cc1OC)C(=O)C(=Cc1cc(Cl)cc(Cl)c1)CC2
106 °C | Cc1cccc(N2CCN(CCc3c(C)nc4c(C)cccn4c3=O)CC2)c1
93 to 94 °C | CCOC(=O)c1c(C(C)C)csc1N/C=C(\C#N)C(=O)OC(C)(C)C
239 to 241 °C | O=c1c(Oc2ccccc2)nc2ccccc2n1-c1ccc(Cl)cc1
80 to 83 °C | Cc1c(CC(=O)N[C@@H](CO)C(=O)O)cc(-c2ccc(S(C)(=O)=O)cc2)n1-c1ccccc1
172 to 173 °C | C[C@H](COc1ccc(F)cc1)Nc1nc(Cl)nc2c1ncn2[C@@H]1O[C@H](CO)[C@@H](O)[C@H]1O

melting point | SMILES
125 to 128 °C | COc1cc(OC)nc(Oc2ccccc2C=NO)n1
108 to 110 °C | COc1cn(C(C)C)c(=O)o1
160 to 161 °C | FC(F)c1nc2ccccc2n1-c1nc(NCc2cccnc2)nc(N2CCOCC2)n1
74 to 76 °C | O=c1ccc(C(F)(F)F)cn1Cc1c(Cl)cccc1Cl
180 to 182 °C | O=C1NCCN1c1ccc(S(=O)(=O)Nc2cccc(Cl)c2)cc1
244 to 246 °C | O=C1NC(=S)S/C1=C\c1ccc(COc2ccc(C(=O)c3ccccc3)cc2)cc1
127 to 128 °C | OCCCN1CCN2c3ccccc3Cc3ccccc3C2C1 (configuration not stated)
152 to 154 °C | COCCOC1C(O)C(CO)OC1n1cnc2c(N)nc(N)nc21 (configuration not stated)
116 °C | CN(C)C(=O)COc1ccc2c(-c3ccccc3F)noc2c1Cl
116 to 119 °C | CCCCn1c(=O)c(NC(=O)Nc2cc(Cc3cc[nH]n3)ccc2C(C)(C)C)c(-c2cccc(OCCCO)c2)c2cccnc21
270 to 273 °C | Cn1c2c(c(=O)n(-c3cc(C(=O)O)c(Cl)cc3F)c1=O)CCC2
182 to 184 °C | Cc1nc(C)c(Cl)c(NCc2ccc(OCCn3c([N+](=O)[O-])cnc3C)cn2)n1
250 to 252 °C | O=C(O)COc1c(I)cc(-c2c3ccccc3cc3sc4ccccc4c23)cc1I
> 300 °C | N#Cc1ccc(-c2cnc(-c3ccc(C#N)cc3)cn2)cc1
174 to 177 °C | C#CCOC(=O)c1cc(-n2c(=O)cc(C)n(C)c2=O)c(F)cc1C#N
186 °C | O=C(c1nc2ccc(O)cc2[nH]1)N1CCC(Cc2ccccc2)CC1
85 to 90 °C | CCN1Cc2ccccc2N(CC)C(Nc2nc(Nc3cc4c(cc3OC)CCN(CC(=O)N(C)C)CC4)ncc2Cl)C1 (configuration not stated)
94 to 95 °C | O=C(Cl)Cc1ccccc1NS(=O)(=O)C(F)(F)F
97 to 98 °C | CC(C)Cc1nn(C)c(=O)c2cc(Cc3ccccc3)sc12
> 260 °C | CC(C)(C)c1cc(N2CCN(C(=O)c3ccc([N+](=O)[O-])cc3)C2=O)cc(C(C)(C)C)c1O
92 to 94 °C | CC1Nc2ccccc2NC1=S (configuration not stated)
115 to 117 °C | C[C@@H](N)C(=O)N(O)C(=O)OC(C)(C)C
139 to 140 °C | CSc1ccc(C(=O)Cc2ccc(F)cc2)cc1
38 to 38.5 °C | O=[N+]([O-])c1cnn(CC(O)CCl)n1 (configuration not stated)
152 to 154 °C | C=CCc1cc2c(c(CC=C)c1O)CCC(=O)N2CCCNC(=O)CCl

melting point | SMILES
142 to 144 °C | NCC1CCc2[nH]c3ccc(Cl)cc3c2C1 (configuration not stated)
211 to 212 °C | CCOC(=O)c1cn(-c2ccc(F)cc2F)c2c(Cl)c(F)c(F)cc2c1=O
235 to 237 °C | O=C1c2ccccc2C(=O)N1c1ccc(S(=O)(=O)NCCC2(C(=O)NCC(F)(F)F)c3ccccc3-c3ccccc32)cc1
37 to 39 °C | CCc1c(CCNC(=O)CCCCC(=O)OC)ccc(OC)c1OC
230 °C | Oc1ccc(C(c2ccc(O)cc2)n2cncn2)cc1
253 to 255 °C | COc1ccc(-c2nc(C(=O)NC(=N)N)sc2-c2ccc(OC)cc2)cc1
68 to 70 °C | CC(=O)OCC(=O)c1ccc(Cl)c(Cl)c1
130 to 131 °C | COc1ccc2cc3c(Br)nn(C(C)C)c3nc2c1
198 to 204 °C | COc1cc(OC)cc(N2Cc3cnc(SC)nc3N=C2N)c1
251 to 253 °C | COc1ccc2nc3c(cc2c1)c(N)nn3CC(=O)N(C)C
65.5 to 66.5 °C | Cc1cc(C)c(C(=O)c2ccc(Cl)cc2)c(C)c1
160 to 162 °C | CN(C)C(=O)NS(=O)(=O)C=Cc1ccccc1
106 to 107 °C | C=C(C)COc1ccc(C(=O)C=Cc2ccc(OC)cc2OC)c(O)c1
104 to 108 °C | CC(C)N1CCC(c2c[nH]c3ccc(NS(C)(=O)=O)cc23)CC1
266 to 267 °C | CC1(C)Oc2ccc(C#N)cc2[C@H](N(Cc2ncc[nH]2)c2ccc(Cl)cc2)[C@H]1O
> 300 °C | O=C(Nc1cccc(-c2ccnc3c(C(=O)c4cccs4)cnn23)c1)c1cccc(Br)c1
217 to 219 °C | CCOc1ncc(C(C)=O)cc1C(=O)Nc1c(C(N)=O)n[nH]c1CC
> 300 °C | CSc1cc2c(cn1)c(=O)n(C)c1cc(C)nn21
113 to 115 °C | Cc1cc(SC2=C(O)CC(CCc3ccc(O)cc3)(C3CCCC3)OC2=O)c(C(C)(C)C)cc1OCCO (configuration not stated)
252 to 253 °C | CC(C)(C)c1ccc(C(=O)Nc2cn3cc(-c4ccccc4)ccc3n2)cc1
104 to 105 °C | COC(CNC1=Nc2ccc(Cl)cc2C(c2ccccc2)N1C)OC (configuration not stated)
64 to 71 °C | CC(C)(C)NC(=O)C1CC(Cl)CN1C(=O)C(O)C(Cc1ccccc1)NC(=O)C(CC(N)=O)NC(=O)C(COC1CCCO1)NC(=O)OCc1ccccc1 (configuration not stated)
65 to 66 °C | COc1cc2c(cc1O)CCN(Cc1ccc(OC)c(OC)c1OC)C2
110 to 114 °C | Nc1nc(NC2Cc3ccccc3N(Cc3ccc(F)cc3F)C2)c2cn[nH]c2n1 (configuration not stated)
50 °C | COCCOCOc1c(Cl)cc(C=O)c(Cl)c1OCOCCOC

melting point | SMILES
152 °C | FC(F)(F)c1ccc2[nH]nc(-c3ccccc3)c2c1
256 to 258 °C | CN(C)C(=O)Nc1ccc2c(c1)C(=O)NC(=O)C2(C)C
108 to 110 °C | CC(CNc1cccc(-c2ccnc3c(C(=O)c4cccs4)cnn23)c1)c1ccccc1 (configuration not stated)
294 to 296 °C | CS(=O)(=O)c1ccc(-c2cc(C#N)c(=O)[nH]c2-c2ccc(F)cc2)cc1
128 to 130 °C | CCOCn1c(Cl)c(Cl)c(C#N)c1-c1ccc(Cl)c(Cl)c1
> 240 °C | CC(C)NC(=O)NCCn1c(CO)nc2c(N)nc3ccccc3c21
88 to 89 °C | COc1ccc(CCN2CCc3cc(OCc4ccccc4)c(OC)cc3C2)cc1
93.4 to 93.7 °C | CCCCCOc1c(OC)ccc(C(=O)NCCc2ccc(OCc3ccccc3)cc2)c1CCO
295 to 296 °C | CCCc1cc(=O)[nH]c2c3c(cc(O)c12)OC(C)C(C)C3=O (configuration not stated)
249 °C | CCC(=O)C1=C(O)CC(c2c(C)c([N+](=O)[O-])c(C)c([N+](=O)[O-])c2C)CC1=O (configuration not stated)
73 to 74 °C | C=CCN(CC=C)NC(=S)Nc1ccc(F)cc1
122 °C | Cc1nccn1-c1cccc(C2=CC(=O)OC(C)(C)O2)c1
94 °C | CN(C(=O)COc1nc2c(F)cccc2s1)c1ccccc1
156 to 157 °C | COc1ccc(-c2csnn2)cc1C=O
139 to 140 °C | COc1ccnc(CSc2nc3cc4c(cc3[nH]2)OC(F)C(F)(F)O4)c1 (configuration not stated)
157 to 159 °C | Cc1oc(-c2ccccc2)nc1CCOc1cccc2c1ccn2C(C)C(=O)O (configuration not stated)
146 to 147 °C | CCC(C)(CC)C(=O)C=C(P(=O)(O)O)P(=O)(O)O
135 to 137 °C | C=CCOc1cc(C(=O)OC)cc(OCC=C)c1NC(C)=O
198 to 199 °C | CC(C)Cn1c(=O)n(C)c(=O)c2cc(Cn3cnc4ccccc43)sc21
65 to 67 °C | COC(=O)Cc1c(OC)ncnc1Oc1cccc(C(C)=O)c1
118 to 121 °C | CCS(=O)(=O)NC1CCCCc2ccc(F)cc21 (configuration not stated)
128 to 130 °C | CC(C)(C)OC(=O)N(O)C(=O)[C@H](N)COCc1ccccc1
85 to 87 °C | N#CC1Cc2cc3c(cc21)NCC3 (configuration not stated)

SMILES | melting point
NS(=O)(=O)c1ccccc1SCCF | 83 to 85 °C
CCCc1c(C(=O)C(C)C)c2ccc(C(N)=O)cc2n1Cc1ccc(F)cc1Cl | 192 to 193 °C
O=C(Nc1ccccc1)Oc1ccccc1 | 123 to 124 °C
COC1(C#Cc2ncn3c2CN(C)C(=O)c2c(Cl)cccc2-3)CCCC1 | 174 to 175 °C
